# Assay results: patent US20120142656A1, “BUCCAL APPLICATION SYSTEM COMPRISING 17A-ESTRADIOL” (BAYER PHARMA AKTIENGESELLSCHAFT, priority 2009, published 2012)
# How the values were obtained:
# Type in all cases: in vivo
# [1] = system: postmenopausal or ovarectomized women; assay: double-blind, randomized crossover clinical study: hot flashes (patient diaries, skin temperature); settings: 0.4 mg buccal tablet
# Description: (§1) Hot flashes were recorded before the beginning of treatment and on one of the last 3 days of treatment week 4. This was carried out according to subjective criteria (number and severity of the events) using patient diaries and objectively by continuous measurement of the skin temperature.
# [2] = system: postmenopausal or ovarectomized women; assay: endometrial thickness by transvaginal ultrasound in clinical study; settings: 0.4 mg buccal tablet
# Description: as §1, with “temperature. In addition, the measurement of the endometrial thickness was carried out by transvaginal ultrasound investigations.” for “temperature.”
# [3] = system: postmenopausal or ovarectomized women; assay: tolerability: monitoring of undesired events and laboratory investigations in clinical study; settings: 0.4 mg buccal tablet, versus placebo group
# Description: as §1, with “temperature. Moreover, the tolerability of the treatment regime was determined by monitoring of undesired events and standardized laboratory investigations.” for “temperature.”
smiles,measurement,setting,value
C[C@]12CC[C@@H]3c4ccc(O)cc4CC[C@H]3[C@@H]1CC[C@H]2O [17α-estradiol],number of hot flashes per 24 h,"[1]; after treatment for 4 weeks, before treatment 11.9±2.1, patient diaries",3.1±1.8 per 24 h
same,effect on number and intensity of hot flashes,[1]; drug group versus placebo,rapid reduction of the number and intensity of hot flashes
same,endometrial thickness measured by transvaginal ultrasound,[2],not significantly altered
same,side-effect profile,[3],comparable
